Test results from patent publication US6693112B2, “Compounds for enhancing chemotherapy” (The Pennsylvania State University, priority 2000, dated 2004).
Values joined by “and” are separate entries in the source; they are usually repeats but may differ in a detail not shown here. Identical values can stand only once. Like-named read-outs stand apart in the source and are kept apart here.

Columns and labels:
MCF-7 cells = assay: Cytotoxicity toward drug-sensitive MCF-7 cells (sulforhodamine B binding assay); assay type: cell-based, human; details: for Toxicity: percent of MCF-7 cells killed by 10 μ/ml of the compound
MRP = target: T1, MRP (Homo sapiens, UniProt P33527); assay: Reversal of MRP-mediated MDR: enhancement of vincristine cytotoxicity toward MCF-7/VP cells; assay type: cell-based; details: % survival with compound alone / with compound + 1 nM vincristine; for MRP1 antagonism score: >1.0 = chemosensitization
T1 construct: MCF-7/VP cells, a cell line that expresses MRP; endogenous in cells; host or cells: MCF-7/VP cells
T1 sequence (P33527 whole entry): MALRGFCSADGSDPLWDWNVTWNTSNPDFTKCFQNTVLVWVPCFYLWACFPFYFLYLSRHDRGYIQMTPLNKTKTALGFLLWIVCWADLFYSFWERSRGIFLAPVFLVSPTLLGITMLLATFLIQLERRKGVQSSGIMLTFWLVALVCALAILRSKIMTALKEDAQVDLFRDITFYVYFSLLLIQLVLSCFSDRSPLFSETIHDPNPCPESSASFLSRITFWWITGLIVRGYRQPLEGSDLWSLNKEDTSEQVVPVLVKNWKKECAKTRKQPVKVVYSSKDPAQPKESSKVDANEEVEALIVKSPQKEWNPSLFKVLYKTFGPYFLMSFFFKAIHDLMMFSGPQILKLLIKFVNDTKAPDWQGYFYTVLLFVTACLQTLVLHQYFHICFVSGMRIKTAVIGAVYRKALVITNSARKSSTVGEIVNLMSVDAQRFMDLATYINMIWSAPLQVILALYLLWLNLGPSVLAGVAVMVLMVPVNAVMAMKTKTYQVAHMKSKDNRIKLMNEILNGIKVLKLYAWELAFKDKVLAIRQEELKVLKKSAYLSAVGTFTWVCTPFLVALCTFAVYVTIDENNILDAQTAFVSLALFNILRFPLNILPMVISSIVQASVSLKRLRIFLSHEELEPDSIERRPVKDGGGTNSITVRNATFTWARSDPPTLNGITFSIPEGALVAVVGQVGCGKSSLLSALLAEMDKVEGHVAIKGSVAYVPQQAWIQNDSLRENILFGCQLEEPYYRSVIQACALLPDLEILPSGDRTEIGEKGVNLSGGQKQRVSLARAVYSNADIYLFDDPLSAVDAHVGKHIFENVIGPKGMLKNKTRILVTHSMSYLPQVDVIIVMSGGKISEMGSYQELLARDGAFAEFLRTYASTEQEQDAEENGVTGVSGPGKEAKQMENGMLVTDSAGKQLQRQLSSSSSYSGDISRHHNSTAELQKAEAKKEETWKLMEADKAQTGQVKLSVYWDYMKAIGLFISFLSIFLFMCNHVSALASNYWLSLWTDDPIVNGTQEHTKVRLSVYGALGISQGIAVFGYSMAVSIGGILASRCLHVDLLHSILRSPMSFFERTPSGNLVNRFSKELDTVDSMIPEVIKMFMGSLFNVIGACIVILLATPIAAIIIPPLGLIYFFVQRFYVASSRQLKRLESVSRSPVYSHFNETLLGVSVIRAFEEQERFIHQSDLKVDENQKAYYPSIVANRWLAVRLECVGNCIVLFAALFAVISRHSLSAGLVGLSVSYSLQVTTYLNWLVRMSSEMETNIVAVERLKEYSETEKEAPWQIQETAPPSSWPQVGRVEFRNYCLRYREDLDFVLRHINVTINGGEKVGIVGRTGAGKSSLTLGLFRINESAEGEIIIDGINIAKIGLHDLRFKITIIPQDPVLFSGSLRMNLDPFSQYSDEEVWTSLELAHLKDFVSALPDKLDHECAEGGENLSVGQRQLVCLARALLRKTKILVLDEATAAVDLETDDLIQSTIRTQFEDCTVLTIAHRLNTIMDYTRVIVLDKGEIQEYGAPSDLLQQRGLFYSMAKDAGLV
Protocol: Reversal of MRP-mediated MDR was examined by plating MCF-7/VP cells as described above and exposing the cells to varying concentrations of phenoxymethylquinoxalinone compounds in the absence or presence of 1 nM vincristine for 48 hours. Cell survival was assayed as described above. The percentage of cells that died following treatment was calculated as described above. Inhibition of MRP was manifested as the ability of the compound to enhance the cytotoxicity of vincristine toward MCF-7/VP cells.
Chemosensitization is indicated by a score greater than 1.0.
Chemosensitization is indicated by a score greater than 1.0. […]

P-gp = P-gp (Homo sapiens, UniProt P08183); details: for P-gp antagonism score / Pgp Antagonism: % survival with compound alone / with compound + 50 nM vinblastine; for P-gp antagonism score: >1.0 = chemosensitization; for p-GP/MRP1: ratio of P-gp and MRP1 antagonism scores
Chain of P-gp (P08183 whole entry): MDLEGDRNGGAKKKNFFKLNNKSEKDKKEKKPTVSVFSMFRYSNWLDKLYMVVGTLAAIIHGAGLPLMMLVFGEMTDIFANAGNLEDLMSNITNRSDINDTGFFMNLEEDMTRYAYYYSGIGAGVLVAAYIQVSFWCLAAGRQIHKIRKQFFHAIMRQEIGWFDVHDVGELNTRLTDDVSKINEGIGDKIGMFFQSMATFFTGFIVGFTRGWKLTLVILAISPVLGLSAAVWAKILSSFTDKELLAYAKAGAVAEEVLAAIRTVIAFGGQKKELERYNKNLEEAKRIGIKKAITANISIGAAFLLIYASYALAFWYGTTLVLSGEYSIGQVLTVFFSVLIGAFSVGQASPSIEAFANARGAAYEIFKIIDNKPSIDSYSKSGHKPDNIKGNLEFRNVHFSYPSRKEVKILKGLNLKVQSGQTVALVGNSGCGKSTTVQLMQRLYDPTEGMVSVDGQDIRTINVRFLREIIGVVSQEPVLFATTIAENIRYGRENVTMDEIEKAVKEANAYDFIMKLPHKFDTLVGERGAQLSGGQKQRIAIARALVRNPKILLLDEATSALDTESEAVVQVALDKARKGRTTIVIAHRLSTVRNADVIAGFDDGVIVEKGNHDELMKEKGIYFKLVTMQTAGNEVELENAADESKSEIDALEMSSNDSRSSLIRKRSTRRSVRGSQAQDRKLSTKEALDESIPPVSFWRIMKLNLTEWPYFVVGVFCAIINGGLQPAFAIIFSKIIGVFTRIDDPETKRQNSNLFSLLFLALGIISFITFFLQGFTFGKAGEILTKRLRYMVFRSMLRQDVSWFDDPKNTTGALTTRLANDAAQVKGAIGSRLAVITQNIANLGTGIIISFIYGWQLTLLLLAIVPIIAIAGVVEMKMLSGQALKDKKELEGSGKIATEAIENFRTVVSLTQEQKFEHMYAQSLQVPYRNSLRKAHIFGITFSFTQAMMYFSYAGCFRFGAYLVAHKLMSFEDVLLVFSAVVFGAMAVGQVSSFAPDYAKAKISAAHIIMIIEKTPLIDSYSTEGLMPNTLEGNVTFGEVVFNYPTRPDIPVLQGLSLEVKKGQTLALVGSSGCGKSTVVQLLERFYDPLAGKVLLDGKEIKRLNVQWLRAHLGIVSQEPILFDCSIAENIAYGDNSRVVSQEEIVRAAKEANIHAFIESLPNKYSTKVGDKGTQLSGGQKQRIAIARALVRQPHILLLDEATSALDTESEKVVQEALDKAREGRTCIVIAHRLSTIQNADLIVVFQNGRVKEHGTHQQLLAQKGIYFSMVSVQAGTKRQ
Protocol: The percentage of cells that died following treatment was calculated as a percent decrease in sulforhodamine B binding as compared with control cultures. […] Inhibition of P-gp was manifested as the ability of the compound to enhance the cytotoxicity of vinblastine toward NCI/ADR cells. To assess the toxicity of the compounds toward drug-sensitive cells, the effects of the compounds on the growth of drug-sensitive MCF-7 cells were determined using the same methods.
The P-gp antagonism score was calculated by dividing the percent survival of NCI/ADR cells treated with the compound alone by the percent survival of NCI/ADR cells treated with the compound in the presence of 50 nM vinblastine. Chemosensitization is indicated by a score of more than 1.0.
The P-gp antagonism score was calculated by dividing the percent survival of NCI/ADR cells treated with […] by the percent survival of NCI/ADR cells treated with the compound in the presence of 50 nM vinblastine.

[1] = MCF-7 cells, 48 hours, concentration required to kill 50% of the cells, * = maximum dose tested (low solubility)
[2] = MCF-7 cells, concentration required to kill 50% of the cells
[3] = concentration of compound at the maximum antagonism

| Structure (SMILES) | MRP1 antagonism score (MRP) | Toxicity (MCF-7 cells) | Pgp Antagonism (P-gp; NCI/ADR cells) | MRP Antagonism (MRP) | also measured |
| --- | --- | --- | --- | --- | --- |
| Cn1c(=O)c(COc2ccccc2)nc2ccccc21 [Compound 1, 1-Methyl-3-phenoxymethyl-1H-quinoxalin-2-one] | 1.0 | – | – | – | IC50 (MCF-7 cells; Homo sapiens, MCF7, 48 h): > 94 µM |
| Cn1c(=O)c(COc2ccc(F)cc2)nc2ccccc21 [Compound 2] | 0.8 | – | – | – | IC50 (MCF-7 cells; [1]): 26 µM |
| Cn1c(=O)c(COc2ccc(C#N)cc2)nc2ccccc21 [Compound 3, 3-(4-Cyano-phenoxymethyl)-1-methyl-1H-quinoxalin-2-one] | 0.8 | – | – | – | IC50 (MCF-7 cells; Homo sapiens, MCF7, 48 h): > 43 µM |
| Cn1c(=O)c(COc2c(F)c(F)c(F)c(F)c2F)nc2ccccc21 [Compound 4] | 0.8 | – | – | – | IC50 (MCF-7 cells; [1]): > 70 µM; P-gp antagonism score (P-gp; NCI/ADR cells): 2.1; p-GP/MRP1 (P-gp): 2.6 |
| Cn1c(=O)c(COc2ccc(C(=O)c3ccccc3)cc2)nc2ccccc21 [Compound 8, 3-(4-Benzoyl-phenoxymethyl)-1-methyl-1H-quinoxalin-2-one] | 0.9 | – | – | – | IC50 (MCF-7 cells; Homo sapiens, MCF7, 48 h): > 67 µM |
| Cc1cc(OCc2nc3ccccc3n(C)c2=O)ccc1[N+](=O)[O-] [Compound 9] | 1.1 | – | – | – | IC50 (MCF-7 cells; [1]): > 77 µM; P-gp antagonism score (P-gp; NCI/ADR cells): 1.6; p-GP/MRP1 (P-gp): 1.4 |
| COC(=O)c1ccc(OCc2nc3ccccc3n(C)c2=O)c(OC)c1 [Compound 10, 3-Methoxy-4-(4-methyl-3-oxo-3,4-dihydroquinoxalin-2-yl-methoxy)-benzoyl methyl ester] | 1.1 | – | – | – | IC50 (MCF-7 cells; [1]): 71 µM; P-gp antagonism score (P-gp; NCI/ADR cells): 5.6; p-GP/MRP1 (P-gp): 5.2 |
| Cn1c(=O)c(COc2ccccc2C(=O)Nc2ccccc2)nc2ccccc21 [Compound 11, 2-(4-Methyl-3-oxo-3,4-dihydroquinoxalin-2-yl-methoxy)-N-phenylbenzamide] | 1.0 | – | – | – | IC50 (MCF-7 cells; Homo sapiens, MCF7, 48 h): > 32 µM |
| CN(C)c1cccc(OCc2nc3ccccc3n(C)c2=O)c1 [Compound 12] | 0.9 | – | – | – | IC50 (MCF-7 cells; [1]): 57 µM; P-gp antagonism score (P-gp; NCI/ADR cells): 1.1; p-GP/MRP1 (P-gp): 1.1 |
| CCOC(=O)c1ccc(OCc2nc3ccccc3n(C)c2=O)cc1 [Compound 13, 4-(4-Methyl-3-oxo-3,4-dihydro-quinoxalin-2-ylmethoxy)-benzoyl ethyl ester] | 0.9 | – | – | – | IC50 (MCF-7 cells; [1]): > 74 µM; P-gp antagonism score (P-gp; NCI/ADR cells): 3.8; p-GP/MRP1 (P-gp): 4.2 |
| Cn1c(=O)c(COc2cccc(Nc3ccccc3)c2)nc2ccccc21 [Compound 14] | 0.9 | – | – | – | IC50 (MCF-7 cells; [1]): 25 µM; P-gp antagonism score (P-gp; NCI/ADR cells): 1.3; p-GP/MRP1 (P-gp): 1.5 |
| Cn1c(=O)c(COc2ccccc2Cc2ccccc2)nc2ccccc21 [Compound 15] | 1.1 | – | – | – | IC50 (MCF-7 cells; [1]): 8.1 µM; P-gp antagonism score (P-gp; NCI/ADR cells): 1.0; p-GP/MRP1 (P-gp): 0.9 |
| Cn1c(=O)c(COc2cccnc2)nc2ccccc21 [Compound 16] | 1.1 | – | – | – | IC50 (MCF-7 cells; [1]): > 56 µM; P-gp antagonism score (P-gp; NCI/ADR cells): 1.0; p-GP/MRP1 (P-gp): 0.9 |
| Cn1c(=O)c(COc2ccc(-c3ccccc3)cc2)nc2ccccc21 [Compound 17] | 0.7 | – | – | – | IC50 (MCF-7 cells; [1]): 30 µM |
| COc1cc(OC)cc(OCc2nc3ccccc3n(C)c2=O)c1 [Compound 21] | 0.9 | – | – | – | IC50 (MCF-7 cells; [1]): 25 µM |
| COc1ccc(OCc2nc3ccccc3n(C)c2=O)cc1OC [Compound 22] | 0.9 | – | – | – | IC50 (MCF-7 cells; [1]): 28 µM |
| COc1cc(OCc2nc3ccccc3n(C)c2=O)cc(OC)c1OC [Compound 23] | 0.9 | – | – | – | IC50 (MCF-7 cells; [1]): 21 µM; P-gp antagonism score (P-gp; NCI/ADR cells): 1.2; p-GP/MRP1 (P-gp): 1.3 |
| CN1CCc2c1nc1cc(Br)ccc1c2N [Compound 36] | – | 99% and 94% | 1.3 | 1.6 | – |
| CCC(=O)Nc1c2c(nc3ccccc13)N(C)CC2 [Compound 37] | – | – | 1.6 | 1.0 | – |
| CN1CCc2c1nc1ccccc1c2NC(=O)Cc1ccccc1 [Compound 38] | – | – | – | 1.0 | – |
| CC(C)NCC(=O)Nc1c2c(nc3ccccc13)N(C)CC2 [Compound 39] | – | 39% | 1.8 | 1.4 | – |
| CN1CCc2c1nc1ccccc1c2NC(=O)CNC(C)(C)C [Compound 40] | – | 28% | 3.2 | 1.2 | – |
| CCN(CC)CC(=O)Nc1c2c(nc3ccccc13)N(C)CC2 [Compound 41] | – | 30% | 6.0 | 1.2 | – |

| Structure (SMILES) | MRP1 antagonism score (MRP) | Toxicity (MCF-7 cells) | Pgp Antagonism (P-gp; NCI/ADR cells) | MRP Antagonism (MRP) | also measured |
| --- | --- | --- | --- | --- | --- |
| CN1CCc2c1nc1ccccc1c2NC(=O)CN1CCCCC1 [Compound 42] | – | 51% | 4.1 | 1.2 | – |
| CCCCN(CCCC)CC(=O)Nc1c2c(nc3ccccc13)N(C)CC2 [Compound 43] | – | 50% | 4.2 | 1.3 | – |
| CN1CCc2c1nc1ccccc1c2NC(=O)CNCCc1ccc(O)cc1 [Compound 44] | – | 21% | 1.7 | 1.4 | – |
| CN1CCc2c1nc1ccccc1c2NC(=O)C12CC3CC(CC(C3)C1)C2 [Compound 45] | – | 29% | 4.7 | 0.9 | – |
| CN1CCc2c1nc1ccccc1c2NC(=O)CCc1cc(C(C)(C)C)c(O)c(C(C)(C)C)c1 [Compound 46] | – | 99% | 1.0 | 1.0 | – |
| CN1CCc2c1nc1ccccc1c2N=C(c1ccccc1)N1CCCCC1 [Compound 47] | – | 58% | 2.4 | 1.0 | – |
| Nc1c2c(nc3ccccc13)N(C1CCCCC1)CC2 [Compound 49] | – | 97% | 0.8 | 0.6 | – |
| Nc1c2c(nc3ccccc13)N(c1ccccc1)CC2 [Compound 51] | – | 52% | 2.7 | 1.1 | – |
| O=C(Nc1c2c(nc3ccccc13)N(Cc1cccc(Cl)c1)CC2)C12CC3CC(CC(C3)C1)C2 [Compound 52] | – | 33% | 1.2 | 1.2 | – |
| Nc1c2c(nc3ccccc13)N(Cc1ccccc1)CC2 [Compound 53] | – | 47% | 3.1 | 1.0 | – |
| CC(C)NCC(=O)Nc1c2c(nc3ccccc13)N(Cc1ccccc1)CC2 [Compound 59] | – | 45% | 13.0 | 0.99 | – |
| CC(C)(C)NCC(=O)Nc1c2c(nc3ccccc13)N(Cc1ccccc1)CC2 [Compound 60] | – | 29% | – | – | – |
| CCN(CC)CC(=O)Nc1c2c(nc3ccccc13)N(Cc1ccccc1)CC2 [Compound 61] | – | 14% | 14.8 | 0.98 | – |
| O=C(CN1CCCCC1)Nc1c2c(nc3ccccc13)N(Cc1ccccc1)CC2 [Compound 62] | – | 0% | 17.8 | 1.1 and 1.09 | – |
| CN1CCN(CC(=O)Nc2c3c(nc4ccccc24)N(Cc2ccccc2)CC3)CC1 [Compound 63] | – | 21% | 7.5 | 1.07 | – |
| CC(C)(C)c1cc(CCC(=O)Nc2c3c(nc4ccccc24)N(Cc2ccccc2)CC3)cc(C(C)(C)C)c1O [Compound 64] | – | 50% | 13.2 | 1.15 | – |
| Nc1c2c(nc3ccccc13)N(Cc1ccccc1)CC2 [Compound 4001] | – | – | – | – | Toxicity IC50 (MCF-7 cells; [2]): 1.7 µg/mL; Antagonism at IC20 or less, P-gp (P-gp): 1.0; Maximum Antagonism (P-gp): 4.0 (3.1); Maximum Antagonism (conc. μg/ml) (P-gp): 4.0 (3.1) μg/ml |
| Fc1cccc(CNc2c3c(nc4ccccc24)N(Cc2ccccc2)CC3)c1 [Compound 4003] | – | – | – | – | Toxicity IC50 (MCF-7 cells; [2]): >25 µg/mL; Maximum Antagonism (conc. μg/ml) (P-gp; [3]): 25 µg/mL |
| COc1cc(CNc2c3c(nc4ccccc24)N(Cc2ccccc2)CC3)cc(OC)c1 [Compound 4005] | – | – | – | – | Toxicity IC50 (MCF-7 cells; [2]): 20 µg/mL; Maximum Antagonism (conc. μg/ml) (P-gp; [3]): 25 µg/mL |
| O=C(CN1CCCCC1)Nc1c2c(nc3ccccc13)N(Cc1ccccc1)CC2 [Compound 4007] | – | – | – | – | Toxicity IC50 (MCF-7 cells; [2]): 6 µg/mL; potency of P-gp antagonism compared with verapamil (P-gp; FIG. 7, NCI/ADR cells, 50 nM vinblastine): somewhat more potent than verapamil; Maximum Antagonism (conc. μg/ml) (P-gp; [3]): 3.1 µg/mL |
| O=C(Nc1c2c(nc3ccccc13)N(Cc1ccccc1)CC2)c1c(F)cccc1C(F)(F)F [Compound 4009] | – | – | – | – | Toxicity IC50 (MCF-7 cells; [2]): 6 µg/mL; Maximum Antagonism (conc. μg/ml) (P-gp; [3]): 3.1 µg/mL |
| O=C(Nc1c2c(nc3ccccc13)N(Cc1ccccc1)CC2)c1ccc(F)c(C(F)(F)F)c1 [Compound 4010] | – | – | – | – | Toxicity IC50 (MCF-7 cells; [2]): 9 µg/mL; Maximum Antagonism (conc. μg/ml) (P-gp; [3]): 3.1 µg/mL |
